Results on 16 compounds are retold here after patent US7981903B2, “2-[2-{phenylamino}-1H-pyrrolo[2,3-D]pyrimidin-4-yl)amino] benzamide derivatives as IGF-1R inhibitors for the treatment of cancer” (GlaxoSmithKline LLC, priority 2007, dated 2011).

The target of one test is T1, human IGF1R (hIGF1R) (Homo sapiens, UniProt P08069).
T1 construct: containing amino acid residues 957-1367 of human IGF1R; made in house; host or cells: Sf9 cells (baculovirus)
Description: TR-FRET kinase assay of purified hIGF1R. The conditions noted are these: activated hIGF1R 0.5 nM, 10 μM ATP, values given as pIC50 category, read-out: IGF-1R pIC50 (converted). In kind it is biochemical. In general terms: TR-FRET usually uses a lanthanide donor and a delayed reading to cut background.

Test [1] deals with T2, NIH-3T3 cells overexpressing human IGF-1R (Homo sapiens, UniProt P08069).
T2 construct: expressed in transfected cells; host or cells: NIH-3T3 (mouse fibroblasts)
Description: IGF-1R cellular autophosphorylation (DELFIA). In kind it is cell-based. In outline:
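Receptor autophosphorylation measured by DELFIA, capturing IGF-1R or IRβ and detecting with europium anti-pTyr, reported as percent of IGF-1- or insulin-stimulated signal. Compounds (30 uM to 1.5 nM) added 2 h before ligand, then 15 min stimulation (IGF-1 30 ng/ml or insulin 3 ug/ml).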

pIC50: −log10 of the molar value.

A word on the pIC50: it is the negative decadic logarithm of the IC50, by convention in mol/L. A higher pIC50 goes with a small IC50.

T2 sequence (P08069 31-1367): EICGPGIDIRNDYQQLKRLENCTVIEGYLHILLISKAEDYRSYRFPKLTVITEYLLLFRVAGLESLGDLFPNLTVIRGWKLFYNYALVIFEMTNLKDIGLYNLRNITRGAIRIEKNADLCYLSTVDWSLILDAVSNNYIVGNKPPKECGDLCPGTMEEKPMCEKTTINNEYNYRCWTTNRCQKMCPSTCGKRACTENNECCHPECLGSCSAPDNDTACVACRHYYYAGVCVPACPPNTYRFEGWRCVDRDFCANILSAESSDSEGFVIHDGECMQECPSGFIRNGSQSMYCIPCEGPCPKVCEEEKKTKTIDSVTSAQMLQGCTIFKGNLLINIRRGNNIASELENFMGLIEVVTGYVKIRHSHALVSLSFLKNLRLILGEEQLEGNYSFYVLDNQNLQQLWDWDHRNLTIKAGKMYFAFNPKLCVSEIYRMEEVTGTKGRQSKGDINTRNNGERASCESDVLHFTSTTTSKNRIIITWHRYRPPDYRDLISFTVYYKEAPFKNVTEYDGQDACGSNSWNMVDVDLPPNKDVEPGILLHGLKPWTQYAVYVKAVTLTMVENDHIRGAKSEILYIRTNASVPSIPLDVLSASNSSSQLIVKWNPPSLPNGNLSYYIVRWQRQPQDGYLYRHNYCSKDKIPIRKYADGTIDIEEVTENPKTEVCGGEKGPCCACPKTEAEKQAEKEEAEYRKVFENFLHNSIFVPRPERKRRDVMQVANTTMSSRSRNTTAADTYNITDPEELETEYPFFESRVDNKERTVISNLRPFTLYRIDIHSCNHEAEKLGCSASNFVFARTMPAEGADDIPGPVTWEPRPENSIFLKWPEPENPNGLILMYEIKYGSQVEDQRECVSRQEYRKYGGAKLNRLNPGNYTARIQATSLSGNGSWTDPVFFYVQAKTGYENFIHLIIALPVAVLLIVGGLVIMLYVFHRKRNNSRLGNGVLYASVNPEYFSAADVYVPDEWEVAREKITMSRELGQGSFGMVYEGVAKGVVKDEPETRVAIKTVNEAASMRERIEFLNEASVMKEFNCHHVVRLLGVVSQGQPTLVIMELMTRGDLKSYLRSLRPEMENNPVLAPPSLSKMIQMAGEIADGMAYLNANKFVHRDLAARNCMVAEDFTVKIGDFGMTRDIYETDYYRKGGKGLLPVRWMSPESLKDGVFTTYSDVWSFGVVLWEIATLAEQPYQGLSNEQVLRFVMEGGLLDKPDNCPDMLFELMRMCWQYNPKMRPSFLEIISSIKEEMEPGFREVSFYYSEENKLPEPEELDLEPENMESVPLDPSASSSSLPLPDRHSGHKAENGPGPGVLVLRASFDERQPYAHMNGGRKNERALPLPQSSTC
T1 sequence (P08069 957-1367): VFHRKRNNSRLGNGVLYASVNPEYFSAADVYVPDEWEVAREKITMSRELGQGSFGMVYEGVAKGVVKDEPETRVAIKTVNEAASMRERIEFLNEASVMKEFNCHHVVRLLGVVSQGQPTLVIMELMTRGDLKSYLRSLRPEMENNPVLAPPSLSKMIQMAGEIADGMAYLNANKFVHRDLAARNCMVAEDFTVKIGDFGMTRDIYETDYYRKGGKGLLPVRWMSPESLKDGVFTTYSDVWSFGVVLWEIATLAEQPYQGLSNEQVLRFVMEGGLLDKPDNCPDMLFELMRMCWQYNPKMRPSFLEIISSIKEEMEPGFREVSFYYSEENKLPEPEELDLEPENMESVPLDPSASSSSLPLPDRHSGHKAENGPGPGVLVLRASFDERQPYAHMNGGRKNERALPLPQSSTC

Consider `COc1cc2c(cc1Nc1nc(Nc3cccc(F)c3C(N)=O)c3cc[nH]c3n1)N(C(=O)CCN1CCN(C(C)C)CC1)CC2` [Example 188, 2-fluoro-6-[(2-{[1-{3-[4-(1-methylethyl)-1-piperazinyl]propanoyl}-5-(methyloxy)-2,3-dihydro-1H-indol-6-yl]amino}-1H-pyrrolo[2,3-d]pyrimidin-4-yl)amino]benzamide], for which the IC50 on human IGF1R (hIGF1R) is 5.01 to 200 nM. In test [1], this compound gave a pIC50 of under 6.30.
In the case of `COc1cc(OCCCN2CCN(C)CC2)ccc1Nc1nc(Nc2cccc(F)c2C(N)=O)c2cc[nH]c2n1` [Example 205, 2-fluoro-6-({2-[(2-(methyloxy)-4-{[3-(4-methyl-1-piperazinyl)propyl]oxy}phenyl)amino]-1H-pyrrolo[2,3-d]pyrimidin-4-yl}amino)benzamide], the IC50 on human IGF1R (hIGF1R) was 5.01 to 200 nM. Moreover, the pIC50 in test [1] was 6.30 to 7.00.
On the same counts, the results for `CN(C)CC(=O)Nc1ccc(OC(F)(F)F)c(Nc2nc(Nc3ccccc3C(N)=O)c3cc[nH]c3n2)c1` [Example 16, 2-{[2-({5-[(N,N-dimethylglycyl)amino]-2-[(trifluoromethyl)oxy]phenyl}amino)-1H-pyrrolo[2,3-d]pyrimidin-4-yl]amino}benzamide] are 0.251 to 1 nM and 6.30 to 7.00.
The corresponding values for `COc1cc(N2CCN(C(C)C)CC2)ccc1Nc1nc(Nc2cc(F)cc(F)c2C(N)=O)c2cc[nH]c2n1` [Example 89, 2,4-difluoro-6-[(2-{[4-[4-(1-methylethyl)-1-piperazinyl]-2-(methyloxy)phenyl]amino}-1H-pyrrolo[2,3-d]pyrimidin-4-yl)amino]benzamide] are 0.251 to 1 nM and over 7.00.
On the same counts, the results for `CCN(CC)CC(=O)N1CCc2cc(OC)c(Nc3nc(Nc4cccc(F)c4C(=O)NC)c4cc[nH]c4n3)cc21` [Example 137, 2-[(2-{[1-(N,N-diethylglycyl)-5-(methyloxy)-2,3-dihydro-1H-indol-6-yl]amino}-1H-pyrrolo[2,3-d]pyrimidin-4-yl)amino]-6-fluoro-N-methylbenzamide] are 5.01 to 200 nM and 6.30 to 7.00.
With `CCCN1CCCC(c2ccc(Nc3nc(Nc4ccccc4C(N)=O)c4cc[nH]c4n3)c(OC)c2)C1` (centres unmarked) [Example 3, 2-[(2-{[2-(methyloxy)-4-(1-propyl-3-piperidinyl)phenyl]amino}-1H-pyrrolo[2,3-d]pyrimidin-4-yl)amino]benzamide], the IC50 on human IGF1R (hIGF1R) was 0.251 to 1 nM. The same compound had a pIC50 in test [1] of over 7.00.
For the compound `CCCN1CCC(N2CCc3cc(OC)c(Nc4nc(Nc5cccc(F)c5C(N)=O)c5cc[nH]c5n4)cc3C2)CC1` [Example 122, 2-fluoro-6-[(2-{[6-(methyloxy)-2-(1-propyl-4-piperidinyl)-1,2,3,4-tetrahydro-7-isoquinolinyl]amino}-1H-pyrrolo[2,3-d]pyrimidin-4-yl)amino]benzamide], the IC50 on human IGF1R (hIGF1R) is 5.01 to 200 nM. This compound also gave a pIC50 in test [1] of 6.30 to 7.00.
The corresponding values for `COc1cc(N2CCN(C(C)C)CC2)c(C)cc1Nc1nc(Nc2cc(F)cc(F)c2C(N)=O)c2cc[nH]c2n1` [Example 91, 2,4-difluoro-6-[(2-{[5-methyl-4-[4-(1-methylethyl)-1-piperazinyl]-2-(methyloxy)phenyl]amino}-1H-pyrrolo[2,3-d]pyrimidin-4-yl)amino]benzamide] are 0.251 to 1 nM and over 7.00.
On the same counts, the results for `COc1ccc(NC(=O)CN(C)C)cc1Nc1nc(Nc2ccccc2C(N)=O)c2cc[nH]c2n1` [Example 15, 2-[(2-{[5-[(N,N-dimethylglycyl)amino]-2-(methyloxy)phenyl]amino}-1H-pyrrolo[2,3-d]pyrimidin-4-yl)amino]benzamide] are 0.251 to 1 nM and over 7.00.
In the case of `COc1cc2c(cc1Nc1nc(Nc3cccc(F)c3C(N)=O)c3cc[nH]c3n1)N(C(=O)CN(C)C)CC2` [Example 53, 2-[(2-{[1-(N,N-dimethylglycyl)-5-(methyloxy)-2,3-dihydro-1H-indol-6-yl]amino}-1H-pyrrolo[2,3-d]pyrimidin-4-yl)amino]-6-fluorobenzamide], the IC50 on human IGF1R (hIGF1R) is 0.251 to 1 nM. Besides, the pIC50 in test [1] was over 7.00.
With `COc1cc2c(cc1Nc1nc(Nc3cc(F)cc(F)c3C(N)=O)c3cc[nH]c3n1)N(C(=O)CN(C)C)CCC2` [Example 178, 2-[(2-{[1-(N,N-dimethylglycyl)-6-(methyloxy)-1,2,3,4-tetrahydro-7-quinolinyl]amino}-1H-pyrrolo[2,3-d]pyrimidin-4-yl)amino]-4,6-difluorobenzamide], on human IGF1R (hIGF1R), the IC50 is 0.251 to 1 nM. This compound also gave a pIC50 in test [1] of over 7.00.
On the same counts, the results for `CNC(=O)c1c(F)cccc1Nc1nc(Nc2cc3c(cc2OC)CCN3C(=O)C(C)(C)O)nc2[nH]ccc12` [Example 193, 2-fluoro-6-[(2-{[1-(2-hydroxy-2-methylpropanoyl)-5-(methyloxy)-2,3-dihydro-1H-indol-6-yl]amino}-1H-pyrrolo[2,3-d]pyrimidin-4-yl)amino]-N-methylbenzamide] are 5.01 to 200 nM and under 6.30.
Consider `COc1cc2c(cc1Nc1nc(Nc3cccc(F)c3C(N)=O)c3cc[nH]c3n1)CN(C(=O)CCN1CCN(C(C)C)CC1)CC2` [Example 229, 2-fluoro-6-[(2-{[2-{3-[4-(1-methylethyl)-1-piperazinyl]propanoyl}-6-(methyloxy)-1,2,3,4-tetrahydro-7-isoquinolinyl]amino}-1H-pyrrolo[2,3-d]pyrimidin-4-yl)amino]benzamide], for which the IC50 on human IGF1R (hIGF1R) is 5.01 to 200 nM. For the same compound, the pIC50 in test [1] was under 6.30.
Consider `COc1cc2c(cc1Nc1nc(Nc3cccc(F)c3C(N)=O)c3cc[nH]c3n1)N(C(=O)CN1CCCCC1)CCC2` [Example 218, 2-fluoro-6-[(2-{[6-(methyloxy)-1-(1-piperidinylacetyl)-1,2,3,4-tetrahydro-7-quinolinyl]amino}-1H-pyrrolo[2,3-d]pyrimidin-4-yl)amino]benzamide], for which the IC50 at human IGF1R (hIGF1R) was 0.251 to 1 nM. Besides, the pIC50 in test [1] is over 7.00.
On the same counts, the results for `COc1cc(C2CCN(C(C)C)CC2)ccc1Nc1nc(Nc2ccc(F)cc2C(N)=O)c2cc[nH]c2n1` [Example 58, 5-fluoro-2-[(2-{[4-[1-(1-methylethyl)-4-piperidinyl]-2-(methyloxy)phenyl]amino}-1H-pyrrolo[2,3-d]pyrimidin-4-yl)amino]benzamide] are 0.251 to 1 nM and over 7.00.
Consider `CCCN1CCC(c2ccc(Nc3nc(Nc4cc(F)cc(F)c4C(N)=O)c4cc[nH]c4n3)c(OC)c2)CC1` [Example 92, 2,4-difluoro-6-[(2-{[2-(methyloxy)-4-(1-propyl-4-piperidinyl)phenyl]amino}-1H-pyrrolo[2,3-d]pyrimidin-4-yl)amino]benzamide], for which the IC50 at human IGF1R (hIGF1R) was 0.251 to 1 nM. Further, the pIC50 in test [1] is over 7.00.
